Results taken from publication PMC3674182 (European journal of medicinal chemistry, 2013).
pIC50: −log10 of the molar value. Values after ≈ are worked out from the molar mass of the structure shown.

Legend:
[1] = tested on: intracellular amastigote form of Leishmania; settings: cited from earlier work
[2] = tested on: Leishmania donovani axenic amastigotes; assay: in vitro antileishmanial activity, axenic amastigotes; type: cell-based; settings: 72 h, read-out: L. donovani IC50, Amastigotes
[3] = tested on: methicillin-resistant S. aureus (MRSA, ATCC 33591); assay: in vitro antibacterial activity; type: cell-based; settings: Staphylococcus aureus, ATCC33591|MRSA, read-out: MIC, MRS

| Molecule | activity against the intracellular amastigote form of Leishmania [1] | also measured |
| --- | --- | --- |
| N-demethylconodurine | strong activity |  |
| conodurine | strong activity |  |
| N=C(N)c1ccc(OCCCCCOc2ccc(C(=N)N)cc2)cc1 [Pentamidine] |  | pIC50 [2]: 5.54 |
| Oc1ccc(C(c2c[nH]c3ccc(I)cc23)c2c[nH]c3ccc(I)cc23)cc1 [8a, 5,5′-Diiodo-3,3′-(4-hydroxyphenyl-methanediyl)-bisindole] |  | MIC [3]: 2 to 4.3 µM (≈ 1.18 to 2.54 µg/mL) |
